Results reported in ChEMBL document CHEMBL1275509, “Plasmid-encoded carbapenem-hydrolyzing beta-lactamase OXA-48 in an imipenem-susceptible Klebsiella pneumoniae strain from Belgium” (2008).
Values after ≈ are worked out from the molar mass of the structure shown.

Key:
Escherichia coli [1] = experiment: Antibacterial activity against Escherichia coli J53 harboring plasmid-encoded beta-lactamase OXA-48 by Etest method; type: functional
Escherichia coli [2] = experiment: Antibacterial activity against Escherichia coli J53 harboring plasmid pA-1carrying beta-lactamase OXA-48 by Etest method; type: functional
Klebsiella pneumoniae [3] = experiment: Antibacterial activity against human urinary Klebsiella pneumoniae UCL-1 harboring plasmid-encoded beta-lactamase OXA-48 by Etest method; type: functional; conditions: UCL-1, Urine
Klebsiella pneumoniae [4] = experiment: Antibacterial activity against Klebsiella pneumoniae 11978 harboring plasmid pA-1carrying beta-lactamase OXA-48 by Etest method; type: functional
Klebsiella pneumoniae [5] = experiment: Antibacterial activity against amoxicillin and amoxicillin-clavulanate resistant Klebsiella pneumoniae UCL-1 assessed as zone of inhibition by disk diffusion method; type: functional
[6] = biological target: Beta-lactamase OXA-48 (Klebsiella pneumoniae) (UniProt Q6XEC0); experiment: Compound hydrolyzing activity of Klebsiella pneumoniae beta-lactamase OXA-48; conditions: UCL-1
Escherichia coli [7] = experiment: Antibacterial activity against Escherichia coli J53 by Etest method; type: functional
Klebsiella pneumoniae [8] = experiment: Antibacterial activity against Klebsiella pneumoniae 11978 harboring plasmid pA-1carrying beta-lactamase OXA-48 by Etest method in presence of beta-lactamase inhibitor clavulanic acid; type: functional
Escherichia coli [9] = experiment: Antibacterial activity against Escherichia coli J53 by Etest method in presence of beta-lactamase inhibitor clavulanic acid; type: functional
Escherichia coli [10] = experiment: Antibacterial activity against Escherichia coli J53 harboring plasmid-encoded beta-lactamase OXA-48 by Etest method in presence of beta-lactamase inhibitor clavulanic acid; type: functional
Klebsiella pneumoniae [11] = experiment: Antibacterial activity against human urinary Klebsiella pneumoniae UCL-1 harboring plasmid-encoded beta-lactamase OXA-48 by Etest method in presence of beta-lactamase inhibitor clavulanic acid; type: functional; conditions: UCL-1, Urine
Escherichia coli [12] = experiment: Antibacterial activity against Escherichia coli J53 harboring plasmid pA-1carrying beta-lactamase OXA-48 by Etest method in presence of beta-lactamase inhibitor clavulanic acid; type: functional
Escherichia coli [13] = experiment: Antibacterial activity against Escherichia coli J53 by Etest method in presence of beta-lactamase inhibitor Tazobactam; type: functional
Klebsiella pneumoniae [14] = experiment: Antibacterial activity against Klebsiella pneumoniae 11978 harboring plasmid pA-1carrying beta-lactamase OXA-48 by Etest method in presence of beta-lactamase inhibitor Tazobactam; type: functional
Escherichia coli [15] = experiment: Antibacterial activity against Escherichia coli J53 harboring plasmid pA-1carrying beta-lactamase OXA-48 by Etest method in presence of beta-lactamase inhibitor Tazobactam; type: functional
Escherichia coli [16] = experiment: Antibacterial activity against Escherichia coli J53 harboring plasmid-encoded beta-lactamase OXA-48 by Etest method in presence of beta-lactamase inhibitor Tazobactam; type: functional
Klebsiella pneumoniae [17] = experiment: Antibacterial activity against human urinary Klebsiella pneumoniae UCL-1 harboring plasmid-encoded beta-lactamase OXA-48 by Etest method in presence of beta-lactamase inhibitor Tazobactam; type: functional; conditions: UCL-1, Urine

Sequence of Beta-lactamase OXA-48 (Klebsiella pneumoniae) (Q6XEC0 whole entry): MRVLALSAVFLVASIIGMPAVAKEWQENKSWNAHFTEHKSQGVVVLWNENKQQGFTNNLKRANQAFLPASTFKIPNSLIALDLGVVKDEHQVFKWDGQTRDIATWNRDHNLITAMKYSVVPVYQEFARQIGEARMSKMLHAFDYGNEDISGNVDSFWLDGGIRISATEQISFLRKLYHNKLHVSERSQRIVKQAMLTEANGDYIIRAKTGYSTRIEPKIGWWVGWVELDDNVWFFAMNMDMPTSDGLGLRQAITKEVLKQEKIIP

| SMILES | MIC (Escherichia coli [1]) [µg/mL] | MIC (Escherichia coli [2]) [µg/mL] | MIC (Klebsiella pneumoniae [3]) [µg/mL] | MIC (Klebsiella pneumoniae [4]) [µg/mL] | inhibition zone (IZ) (Klebsiella pneumoniae [5]) [mm] | Activity [6] [µmol/min/mg] | MIC (Escherichia coli [7]) [µg/mL] | MIC (Klebsiella pneumoniae [8]) [µg/mL] | MIC (Escherichia coli [9]) [µg/mL] | MIC (Escherichia coli [10]) [µg/mL] | MIC (Klebsiella pneumoniae [11]) [µg/mL] | MIC (Escherichia coli [12]) [µg/mL] | MIC (Escherichia coli [13]) [µg/mL] | MIC (Klebsiella pneumoniae [14]) [µg/mL] | MIC (Escherichia coli [15]) [µg/mL] | MIC (Escherichia coli [16]) [µg/mL] | MIC (Klebsiella pneumoniae [17]) [µg/mL] |
| --- | --- | --- | --- | --- | --- | --- | --- | --- | --- | --- | --- | --- | --- | --- | --- | --- | --- |
| C[C@H]1[C@H](NC(=O)/C(=N\OC(C)(C)C(=O)O)c2csc(N)n2)C(=O)N1S(=O)(=O)O [AZTREONAM] | 0.064 (≈ 0.147 µM) | 0.064 (≈ 0.147 µM) | 0.064 (≈ 0.147 µM) | > 256 |  |  |  |  |  |  |  |  |  |  |  |  |  |
| C[C@@H](O)[C@H]1C(=O)N2C(C(=O)O)=C(SCCNC=N)C[C@H]12 [IMIPENEM ANHYDROUS] | 0.75 (≈ 2.51 µM) | 1 (≈ 3.34 µM) | 0.75 (≈ 2.51 µM) | 64 (≈ 214 µM) | 22 | 1.6 |  |  |  |  |  |  |  |  |  |  |  |
| CO/N=C(\C(=O)N[C@@H]1C(=O)N2C(C(=O)[O-])=C(C[N+]3(C)CCCC3)CS[C@H]12)c1csc(N)n1 [CEFEPIME] | 0.125 (≈ 0.26 µM) | 0.125 (≈ 0.26 µM) | 0.125 (≈ 0.26 µM) | 32 (≈ 66.6 µM) |  |  | 0.03 (≈ 0.0624 µM) |  |  |  |  |  |  |  |  |  |  |
| CC(=O)OCC1=C(C(=O)O)N2C(=O)[C@@H](NC(=O)Cc3cccs3)[C@H]2SC1 [CEPHALOTHIN] | 8 (≈ 20.2 µM) | 8 (≈ 20.2 µM) | 16 (≈ 40.4 µM) | > 256 |  |  | 4 (≈ 10.1 µM) |  |  |  |  |  |  |  |  |  |  |
| CC1(C)S[C@@H]2[C@H](NC(=O)[C@H](N)c3ccc(O)cc3)C(=O)N2[C@H]1C(=O)O [AMOXICILLIN] | > 256 | > 256 | > 256 | > 256 |  |  | 4 (≈ 10.9 µM) | > 256 | 4 | > 256 | > 256 | > 256 |  |  |  |  |  |
| C[C@@H](O)[C@H]1C(=O)N2C(C(=O)O)=C(S[C@@H]3CN[C@H](C(=O)Nc4cccc(C(=O)O)c4)C3)[C@H](C)[C@H]12 [ERTAPENEM] | 2 (≈ 4.21 µM) | 2 (≈ 4.21 µM) | 4 (≈ 8.41 µM) | > 32 | 18 | 0.04 | 0.03 (≈ 0.0631 µM) |  |  |  |  |  |  |  |  |  |  |
| CO[C@@]1(NC(=O)Cc2cccs2)C(=O)N2C(C(=O)O)=C(COC(N)=O)CS[C@@H]21 [CEFOXITIN] | 2 (≈ 4.68 µM) | 2 (≈ 4.68 µM) | 2 (≈ 4.68 µM) | 128 (≈ 299 µM) |  |  | 2 (≈ 4.68 µM) |  |  |  |  |  |  |  |  |  |  |
| CN(C)c1cc(NC(=O)CNC(C)(C)C)c(O)c2c1C[C@H]1C[C@H]3[C@H](N(C)C)C(O)=C(C(N)=O)C(=O)[C@@]3(O)C(O)=C1C2=O [TIGECYCLINE] | 0.5 (≈ 0.854 µM) | 0.5 (≈ 0.854 µM) | 2 (≈ 3.41 µM) | 1.5 (≈ 2.56 µM) |  |  | 0.5 (≈ 0.854 µM) |  |  |  |  |  |  |  |  |  |  |
| CO/N=C(\C(=O)N[C@@H]1C(=O)N2C(C(=O)O)=C(COC(C)=O)CS[C@H]12)c1csc(N)n1 [CEFOTAXIME] | 0.38 (≈ 0.834 µM) | 0.38 (≈ 0.834 µM) | 0.125 (≈ 0.274 µM) | 64 (≈ 141 µM) |  |  | 0.06 (≈ 0.132 µM) |  |  |  |  |  |  |  |  |  |  |
| C[C@@H](O)[C@H]1C(=O)N2C(C(=O)O)=C(S[C@@H]3CN[C@H](C(=O)N(C)C)C3)[C@H](C)[C@H]12 [MEROPENEM] | 0.5 (≈ 1.3 µM) | 0.5 (≈ 1.3 µM) | 0.5 (≈ 1.3 µM) | 64 (≈ 167 µM) | 23 | 0.05 | 0.03 (≈ 0.0782 µM) |  |  |  |  |  |  |  |  |  |  |
| CCN1CCN(C(=O)N[C@@H](C(=O)N[C@@H]2C(=O)N3[C@@H]2SC(C)(C)[C@@H]3C(=O)O)c2ccccc2)C(=O)C1=O [PIPERACILLIN] | 128 (≈ 247 µM) | 128 (≈ 247 µM) | 256 (≈ 495 µM) | > 256 |  |  | 1 (≈ 1.93 µM) |  |  |  |  |  | 1 | > 256 | 128 | 128 | 256 |
| CC1(C)S[C@@H]2[C@H](NC(=O)[C@H](C(=O)O)c3ccsc3)C(=O)N2[C@H]1C(=O)O [TICARCILLIN] | > 256 | > 256 | > 256 | > 256 |  |  | 2 (≈ 5.2 µM) | > 256 | 2 | > 256 | > 256 | > 256 |  |  |  |  |  |
| CC(C)(O/N=C(\C(=O)N[C@@H]1C(=O)N2C(C(=O)[O-])=C(C[n+]3ccccc3)CS[C@H]12)c1csc(N)n1)C(=O)O [CEFTAZIDIME] | 0.75 (≈ 1.37 µM) | 0.75 (≈ 1.37 µM) | 1 (≈ 1.83 µM) | > 256 |  |  | 0.06 (≈ 0.11 µM) |  |  |  |  |  |  |  |  |  |  |
